From US12491170B2, “Stable treprostinil prodrugs” (United Therapeutics Corporation, priority 2020, dated 2025)
Read-outs that look alike come from different tables or passages of the source.

Assays:
[1] = Stability in liver microsomes, human
[2] = Stability in cryopreserved hepatocytes, human
[3] = Stability in cryopreserved hepatocytes, rat
[4] = Stability in cryopreserved hepatocytes, dog
[5] = molecular target: prostaglandin I2 (PGI2) receptor (IP) (Homo sapiens, UniProt P43119); experiment: IP receptor cAMP agonist assay (CHO-K1 cells); type: cell-based; details: summary of findings
prostaglandin I2 (PGI2) receptor (IP), sequence (P43119 whole entry): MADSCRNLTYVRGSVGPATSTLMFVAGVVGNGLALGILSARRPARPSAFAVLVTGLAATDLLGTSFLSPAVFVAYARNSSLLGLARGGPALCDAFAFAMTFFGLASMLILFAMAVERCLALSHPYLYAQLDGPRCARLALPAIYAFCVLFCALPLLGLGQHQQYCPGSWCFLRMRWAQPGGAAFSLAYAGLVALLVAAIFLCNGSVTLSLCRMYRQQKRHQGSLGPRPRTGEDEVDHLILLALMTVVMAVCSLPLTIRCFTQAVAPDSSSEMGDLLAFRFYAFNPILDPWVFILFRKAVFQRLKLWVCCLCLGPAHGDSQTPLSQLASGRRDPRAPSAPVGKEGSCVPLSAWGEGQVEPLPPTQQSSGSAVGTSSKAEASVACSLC
Method in brief: (§1)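 Agonist-mode cAMP accumulation in cells overexpressing the human receptor (DP1 and EP2 in HEK293T, IP in CHO-K1). Compounds were added at varying concentrations with 0.1% DMSO for 20 min at 37 °C, then cAMP was read by TR-FRET. Dose-responses were fitted to variable-slope sigmoidal curves.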

[6] = molecular target: prostaglandin E2 (PGE2) receptor 2 (EP2) (Homo sapiens, UniProt P43116); experiment: EP2 receptor cAMP agonist assay (HEK293T cells); type: cell-based; details: summary of findings
prostaglandin E2 (PGE2) receptor 2 (EP2), sequence (P43116 whole entry): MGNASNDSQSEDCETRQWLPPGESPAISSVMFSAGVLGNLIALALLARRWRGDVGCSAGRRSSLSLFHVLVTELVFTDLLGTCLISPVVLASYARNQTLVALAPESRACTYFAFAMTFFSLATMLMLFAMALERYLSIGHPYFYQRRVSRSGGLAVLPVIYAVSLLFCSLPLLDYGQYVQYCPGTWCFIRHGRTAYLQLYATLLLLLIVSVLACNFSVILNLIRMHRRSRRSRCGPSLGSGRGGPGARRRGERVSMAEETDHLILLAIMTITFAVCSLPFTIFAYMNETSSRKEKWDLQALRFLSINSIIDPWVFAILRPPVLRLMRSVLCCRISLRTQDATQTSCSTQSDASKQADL
Method in brief: as §1

[7] = Hydrolysis of prodrugs to treprostinil at pH 6, 7, 8 and 40 C; type: physicochemical
Source text: Tables 24, 25 and 26 present data for hydrolysis of selected treprostinil prodrugs at pH 6, 7 and 8, respectively, and 40 C.

[8] = rat
[9] = dog

In the case of treprostinil diacetate [Prodrug LXXII], the “Trep Concentration 0 min” value [1] is reported as 0.989 µM, the “Trep Concentration 10 min” value [1] is reported as 0.829 µM and the “Trep Concentration 20 min” value [1] is reported as 0.543 µM. The “Trep Concentration 30 min” value [1] was 0.485 µM, the “Trep Concentration 60 min” value [1] was 0.349 µM and the “Treprostinil Concentration 0 min” value [1] was 0.989 µM. The “Treprostinil Concentration 15 min” value [1] was 0.829 µM, the “Treprostinil Concentration 30 min” value [1] was 0.543 µM and the “Treprostinil Concentration 60 min” value [1] was 0.485 µM. The “Treprostinil Concentration 120 min” value [1] was 0.349 µM, the AUC ([1]; human) was 33.6 µmol·min/L and the “AUC Mono (treprostinil formed)” value ([1]; human) was 33.6 µmol·min/L. The CLint ([1]; human, microsomes) was over 0.139 mL/min/mg protein, the Half-life ([1]; human, microsomes) was under 10 min and the “Trep Concentration (μM) 0 min” value [2] was 0.00458 µM. The “Trep Concentration (μM) 15 min” value [2] was 0.562 µM, the “Trep Concentration (μM) 30 min” value [2] was 0.491 µM and the “Trep Concentration (μM) 60 min” value [2] was 0.433 µM. For the same substance, the “Treprostinil Concentration 0 min” value [2] was 0.00458 µM, the “CLint, calculated (in parentheses)” value ([2]; hepatocytes) was 0.276 mL/min/mg protein and the “Half-life, calculated (in parentheses)” value ([2]; hepatocytes) was 1.67 min. The “AUC” value ([2]; human) was 49.92 µmol·min/L, the “Mono AUC (treprostinil formed)” value ([2]; human) was 49.9 µmol·min/L and the CLint ([2]; human, hepatocytes) was over 0.0308 mL/min/mg protein. For the same substance, the Half-life ([2]; human, hepatocytes) was under 15 min, the “Trep Concentration (μM) 0 min” value [3] was 0 µM and the “Trep Concentration (μM) 15 min” value [3] was 0.24 µM. For the same substance, the “Trep Concentration (μM) 30 min” value [3] was 0.301 µM, the “Trep Concentration (μM) 60 min” value [3] was 0.298 µM and the “Trep Concentration (μM) 120 min” value [3] was 0.274 µM. For the same substance, the “Treprostinil Concentration 0 min” value [3] was 0 µM, the “Treprostinil Concentration 120 min” value [3] was 0.274 µM and the “CLint, calculated (in parentheses)” value ([3]; hepatocytes) was 0.0697 mL/min/mg protein. The “Half-life, calculated (in parentheses)” value ([3]; hepatocytes) was 6.63 min, the “AUC” value ([3]; rat) was 32 µmol·min/L and the “Mono AUC (treprostinil formed)” value ([3]; rat) was 32.0 µmol·min/L. For the same substance, the CLint ([3]; rat, hepatocytes) was over 0.0308 mL/min/mg protein, the Half-life ([3]; rat, hepatocytes) was under 15 min and the “Trep Concentration (μM) 0 min” value [4] was 0.0636 µM. The “Trep Concentration (μM) 30 min” value [4] was 0.541 µM, the “Trep Concentration (μM) 60 min” value [4] was 0.465 µM and the “Trep Concentration (μM) 120 min” value [4] was 0.401 µM. For the same substance, the “Treprostinil Concentration 15 min” value [4] was 0.671 µM, the “Treprostinil Concentration 120 min” value [4] was 0.401 µM and the “AUC” value ([4]; dog) was 55.67 µmol·min/L. The “Mono AUC (treprostinil formed)” value ([4]; dog) was 55.7 µmol·min/L, the CLint ([4]; dog, hepatocytes) was over 0.0308 mL/min/mg protein and the Half-life ([4]; dog, hepatocytes) was under 15 min. The “Activity at the IP receptor compared to treprostinil” value [5] was “inactive”, the “Activity at the EP2 receptor compared to treprostinil” value [6] was “non-traditional dose response curve” and the “Hydrolysis to treprostinil, % Area, t = 1 week” value (shortened to “Hydrolysis … % Area, t = 1 week”) ([7]; pH 6, 40 C.) was 0.00 % Area. For the same substance, the “Hydrolysis to treprostinil, % Area, t = 2 weeks” value (shortened to “Hydrolysis … % Area, t = 2 weeks”) ([7]; pH 6, 40 C.) was 0.00 % Area, the “Hydrolysis to treprostinil, % Area, t = 3 weeks” value (“Hydrolysis … % Area, t = 3 weeks” below) ([7]; pH 6, 40 C.) was 0.00 % Area and the “Hydrolysis … % Area, t = 1 week” value ([7]; pH 7, 40 C.) was 0.00 % Area. The “Hydrolysis … % Area, t = 2 weeks” value ([7]; pH 7, 40 C.) was 0.00 % Area, the “Hydrolysis … % Area, t = 3 weeks” value ([7]; pH 7, 40 C.) was 0.00 % Area and the “Hydrolysis … % Area, t = 1 week” value ([7]; pH 8, 40 C.) was 0.00 % Area. The “Hydrolysis … % Area, t = 2 weeks” value ([7]; pH 8, 40 C.) was 0.00 % Area, the “Hydrolysis … % Area, t = 3 weeks” value ([7]; pH 8, 40 C.) was 0.00 % Area and the AUC [8] was 10.02 µmol·min/L. It also gave an AUC [9] of 60.91 µmol·min/L.
